In the NIST ThermoML archive (doi:10.1021/je9003959):
Numbers after ± are expanded uncertainties.

Assays:
[1] = refractive index (Na D-line) (dimensionless); conditions: 101.33 kPa, Liquid, Standard Abbe refractometry
[2] = 101 kPa, Liquid; for viscosity: Capillary tube (Ostwald / Ubbelohde) method; for speed of sound: Cylindrical cavity resonance method
[3] = xn = mol fraction of the nth substance listed; conditions: 101 kPa, Liquid, x2 = 0; for viscosity: Capillary tube (Ostwald / Ubbelohde) method
[4] = refractive index (Na D-line) (dimensionless); xn = mol fraction of the nth substance listed; conditions: 101 kPa, Liquid, Standard Abbe refractometry, x2 = 0

Question: What does the source list for `CCN1CCCC1=O` [1-ethyl-2-pyrrolidinone]?
Answer: refractive index ([1]; 293 K): 1.46461 ± 0.00077; refractive index ([1]; 298 K): 1.46192 ± 0.00087; refractive index ([1]; 303 K): 1.45791 ± 0.00075; refractive index ([1]; 313 K): 1.45415 ± 0.00064; refractive index ([1]; 323 K): 1.45147 ± 0.00062; mass density ([2]; 293 K): 1000.55 ± 1.8 kg/m3; viscosity ([2]; 293 K): 2.133 ± 0.027 mPa·s; speed of sound ([2]; 293 K): 1511.6 ± 2.1 m/s; mass density ([2]; 298 K): 996.24 ± 1.8 kg/m3; viscosity ([2]; 298 K): 2.022 ± 0.026 mPa·s; speed of sound ([2]; 298 K): 1492.5 ± 2.1 m/s; mass density ([2]; 303 K): 991.93 ± 1.9 kg/m3; viscosity ([2]; 303 K): 1.832 ± 0.024 mPa·s; speed of sound ([2]; 303 K): 1473.3 ± 2.1 m/s; mass density ([2]; 313 K): 983.26 ± 2 kg/m3; viscosity ([2]; 313 K): 1.621 ± 0.021 mPa·s; speed of sound ([2]; 313 K): 1435.3 ± 2.1 m/s; mass density ([2]; 323 K): 974.56 ± 2.1 kg/m3; viscosity ([2]; 323 K): 1.358 ± 0.018 mPa·s; speed of sound ([2]; 323 K): 1398 ± 2.1 m/s

Question: For `O` [water], which refractive index ([1]; 293 K) is on record?
Answer: The refractive index was 1.33298 ± 0.00044.

Question: What about the refractive index ([1]; 298 K) of the same compound?
Answer: Its refractive index is 1.33251 ± 0.00045.

Question: What about the refractive index ([1]; 303 K) of the same compound?
Answer: The refractive index was 1.33191 ± 0.00045.

Question: What about the refractive index ([1]; 313 K) of the same compound?
Answer: Its refractive index is 1.33061 ± 0.00046.

Question: And the refractive index ([1]; 323 K)?
Answer: The refractive index was 1.32902 ± 0.00046.

Question: And the mass density ([2]; 293 K)?
Answer: The mass density was 998.26 ± 1.2 kg/m3.

Question: What about the viscosity ([2]; 293 K) of the same compound?
Answer: The viscosity was 1.009 ± 0.01 mPa·s.

Question: What about the viscosity ([2]; 298 K) of the same compound?
Answer: The viscosity was 0.9029 ± 0.0094 mPa·s.

Question: And the viscosity ([2]; 303 K)?
Answer: Its viscosity is 0.8133 ± 0.0084 mPa·s.

Question: And the mass density ([2]; 313 K)?
Answer: Its mass density is 992.26 ± 1.3 kg/m3.

Question: What about the viscosity ([2]; 313 K) of the same compound?
Answer: The viscosity was 0.6693 ± 0.007 mPa·s.

Question: And the speed of sound ([2]; 313 K)?
Answer: Its speed of sound is 1529.1 ± 1.2 m/s.

Question: And the viscosity ([2]; 323 K)?
Answer: The viscosity was 0.5611 ± 0.0061 mPa·s.

Question: With `O` [water] + CCN1CCCC1=O as the compound, how does the viscosity ([3]; 293 K) read?
Answer: The viscosity was 1.009 ± 0.01 mPa·s.

Question: And the mass density ([3]; 293 K)?
Answer: Its mass density is 998.26 ± 1.2 kg/m3.

Question: And the viscosity ([3]; 298 K)?
Answer: Its viscosity is 0.9029 ± 0.0094 mPa·s.

Question: What about the viscosity ([3]; 303 K) of the same compound?
Answer: The viscosity was 0.8133 ± 0.0084 mPa·s.

Question: What about the viscosity ([3]; 313 K) of the same compound?
Answer: Its viscosity is 0.6693 ± 0.007 mPa·s.

Question: And the speed of sound ([3]; 313 K, Cylindrical cavity resonance method)?
Answer: The speed of sound was 1529.1 ± 1.2 m/s.

Question: And the mass density ([3]; 313 K)?
Answer: Its mass density is 992.26 ± 1.3 kg/m3.

Question: What about the viscosity ([3]; 323 K) of the same compound?
Answer: Its viscosity is 0.5611 ± 0.0061 mPa·s.

Question: And the refractive index ([4]; 293 K)?
Answer: The refractive index was 1.33298 ± 0.00044.

Question: What about the refractive index ([4]; 298 K) of the same compound?
Answer: The refractive index was 1.33251 ± 0.00045.

Question: And the refractive index ([4]; 303 K)?
Answer: Its refractive index is 1.33191 ± 0.00045.

Question: What about the refractive index ([4]; 313 K) of the same compound?
Answer: The refractive index was 1.33061 ± 0.00046.

Question: What about the refractive index ([4]; 323 K) of the same compound?
Answer: The refractive index was 1.32902 ± 0.00046.
